US20120041068A1, “Extended Release Pharmaceutical Preparations for Active Pharmaceutical Ingredients with pH Dependent Solubility” (Aptapharma, Inc., priority 2010, published 2012)
Structures can show the parent of a compound that is named as a salt.

Experiment: Effect of crystallization inhibitor on guanfacine HCl solubility (clear vs precipitate on storage)
Format: physicochemical
Conditions: in the presence of polyvinyl pyrrolidone vs comparison formulation without polyvinyl pyrrolidone
Description: As crystallization inhibitors, highly dispersed silicon dioxide or macromolecular substances are suitable.

N=C(N)NC(=O)Cc1c(Cl)cccc1Cl [guanfacine, guanfacine hydrochloride]
tendency toward crystal formation: less tendency toward crystal formation
